Measured values: article doi:10.64898/2025.12.05.692609v2, “Early intervention with a PACAP lactoside following repetitive mild traumatic brain injury prevents persistent LHb hyperactivity and motivational deficits in male mice” (bioRxiv, 2025)
Read-outs that look alike come from different tables or passages of the source. Where a SMILES comes first, the peptide text is derived from it. [ ]: non-standard residue; d: D form. The star is where a group is joined. X1 = OC[C@H]1O[C@@H](O[C@H]2[C@H](O)[C@@H](O)[C@H](*)O[C@@H]2CO)[C@H](O)[C@@H](O)[C@H]1O; Nle = CCCC[C@H](N)C(=O)O

Test system: LHb neurons
Assay type: in vivo, male C57BL/6 mice
[1] = mTBI+early TES2320: 10 mg/kg i.p. within 30 min after each of 5 injuries, cell-attached V=0, ~4 weeks post-injury, n=138 cells/13 mice
[2] = mTBI+late TES2320: single 10 mg/kg i.p. injection one month post-mTBI, cell-attached V=0, n=58 cells/5 mice

Question: Which results are given for `CCCC[C@H](NC(=O)[C@H](CCC(N)=O)NC(=O)[C@H](CCCCN)NC(=O)[C@H](CCCNC(=N)N)NC(=O)[C@H](Cc1ccc(O)cc1)NC(=O)[C@H](CCCNC(=N)N)NC(=O)[C@H](CO)NC(=O)[C@H](Cc1ccc(O)cc1)NC(=O)[C@H](CO)NC(=O)[C@H](CC(=O)O)NC(=O)[C@@H](NC(=O)[C@H](Cc1ccccc1)NC(=O)[C@@H](NC(=O)CNC(=O)[C@H](CC(=O)O)NC(=O)[C@H](CO)NC(=O)[C@@H](N)Cc1c[nH]cn1)[C@@H](C)CC)[C@@H](C)O)C(=O)N[C@@H](C)C(=O)N[C@H](C(=O)N[C@@H](CCCCN)C(=O)N[C@@H](CCCCN)C(=O)N[C@@H](Cc1ccc(O)cc1)C(=O)N[C@@H](CC(C)C)C(=O)N[C@@H](CO[C@@H]1O[C@H](CO)[C@@H](O[C@@H]2O[C@H](CO)[C@H](O)[C@H](O)[C@H]2O)[C@H](O)[C@H]1O)C(N)=O)C(C)C` [TES2320] (H-HSDGIFTDSYSRYRKQ[Nle]AVKKYLS(X1)-NH2; N-terminus assumed)?
Answer: effect on mTBI-induced spontaneous LHb tonic hyperactivity (early intervention, 10 mg/kg i.p. x5, vs mTBI+vehicle p<0.01, Chi squared test): prevented; effect on mTBI-induced spontaneous LHb tonic hyperactivity (late intervention, single 10 mg/kg i.p. one month post-mTBI, vs mTBI+vehicle p<0.05, Chi squared test): reversed; LHb neurons bursting, spontaneous activity [1]: 4%; LHb neurons silent, spontaneous activity [1]: 50%; LHb neurons tonic, spontaneous activity [1]: 46%; LHb neurons bursting, spontaneous activity [2]: 5%; LHb neurons silent, spontaneous activity [2]: 48%; LHb neurons tonic, spontaneous activity [2]: 47%
